Source: article PMC10709440, “High-throughput ligand profile characterization in novel cell lines expressing seven heterologous insect olfactory receptors for the detection of volatile plant biomarkers” (Scientific Reports, 2023)
Where two headings read alike, the source gives them in different places.

Experiments:
[1] = biological target: T1, Drosophila OR10a (Drosophila melanogaster, UniProt Q9VYZ1); assay: Calcium ion fluorescence (GCaMP6) assay, OR10a stable HEK293 cell line; assay type: cell-based
T1 construct: expressed in transfected cells
T1 sequence (Q9VYZ1 1-406): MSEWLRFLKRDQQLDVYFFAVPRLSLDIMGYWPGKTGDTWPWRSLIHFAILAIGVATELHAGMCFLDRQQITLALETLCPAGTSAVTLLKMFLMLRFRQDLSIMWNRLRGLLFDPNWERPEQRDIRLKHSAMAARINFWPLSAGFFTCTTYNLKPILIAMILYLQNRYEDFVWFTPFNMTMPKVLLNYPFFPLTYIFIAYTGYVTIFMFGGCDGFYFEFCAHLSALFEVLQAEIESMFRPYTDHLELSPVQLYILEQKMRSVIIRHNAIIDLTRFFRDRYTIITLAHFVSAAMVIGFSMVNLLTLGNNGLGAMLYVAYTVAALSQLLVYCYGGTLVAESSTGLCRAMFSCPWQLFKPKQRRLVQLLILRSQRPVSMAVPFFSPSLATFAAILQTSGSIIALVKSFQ
T1 sequence (Q9VNB5 1-486 partner): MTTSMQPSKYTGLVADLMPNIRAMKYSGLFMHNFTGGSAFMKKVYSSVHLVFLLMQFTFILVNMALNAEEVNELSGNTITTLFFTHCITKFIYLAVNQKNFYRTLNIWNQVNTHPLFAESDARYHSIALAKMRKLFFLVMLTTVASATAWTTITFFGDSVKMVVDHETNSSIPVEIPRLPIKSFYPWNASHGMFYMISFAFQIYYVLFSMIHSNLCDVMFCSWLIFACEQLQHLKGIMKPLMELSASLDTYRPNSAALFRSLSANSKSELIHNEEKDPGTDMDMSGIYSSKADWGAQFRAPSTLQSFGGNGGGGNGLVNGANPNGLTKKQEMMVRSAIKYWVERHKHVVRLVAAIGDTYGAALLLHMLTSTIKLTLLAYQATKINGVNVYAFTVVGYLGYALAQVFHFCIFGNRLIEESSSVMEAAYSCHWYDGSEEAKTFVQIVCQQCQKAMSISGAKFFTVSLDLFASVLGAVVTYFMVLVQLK
Outline: (§1)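 HEK293 lines stably expressing each Drosophila OR with GCaMP6, doxycycline-induced (1 μg/mL) 48 or 72 h. Fluorescence recorded 5 s baseline then 30 s after VOC injection at pH 7.3; ΔF=(FMAX−F0)/F0, normalized to 50 µM VUAA1 response per line, triplicate wells averaged; concentration series 0.01–100 μM.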

[2] = biological target: T2, Drosophila OR85b (Drosophila melanogaster, UniProt Q9VHQ7); assay: Calcium ion fluorescence (GCaMP6) assay, OR85b stable HEK293 cell line; assay type: cell-based; details: for Average response: VUAA1-normalized response, mean of biological replicates
T2 construct: expressed in transfected cells
T2 sequence (Q9VHQ7 1-390): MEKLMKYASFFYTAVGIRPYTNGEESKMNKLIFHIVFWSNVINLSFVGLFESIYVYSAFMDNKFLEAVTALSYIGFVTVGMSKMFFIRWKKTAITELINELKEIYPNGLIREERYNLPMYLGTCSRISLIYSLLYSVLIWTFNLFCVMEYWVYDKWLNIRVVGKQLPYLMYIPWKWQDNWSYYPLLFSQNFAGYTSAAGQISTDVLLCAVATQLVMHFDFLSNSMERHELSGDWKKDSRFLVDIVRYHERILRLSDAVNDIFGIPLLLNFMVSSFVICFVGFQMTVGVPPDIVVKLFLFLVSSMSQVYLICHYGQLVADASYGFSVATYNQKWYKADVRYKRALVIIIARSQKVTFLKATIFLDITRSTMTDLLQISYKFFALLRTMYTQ
T2 sequence (Q9VNB5 1-486 partner): T1 sequence (Q9VNB5 1-486 partner)
Outline: as §1

[3] = HEK293, 1 μM VOC, 50 μM VUAA1 = 1, responses not exceeding 0.05 considered 0, read-out: OR10a Average response (VUAA1-normalized)
[4] = HEK293, 10 μM VOC, 50 μM VUAA1 = 1, responses not exceeding 0.05 considered 0, read-out: OR10a Average response (VUAA1-normalized)
[5] = HEK293, 100 μM VOC, 50 μM VUAA1 = 1, responses not exceeding 0.05 considered 0, read-out: OR10a Average response (VUAA1-normalized)
[6] = ligand concentration 1 (unit not given), threshold 0.05, below shown as 0
[7] = ligand concentration 10 (unit not given), threshold 0.05, below shown as 0
[8] = ligand concentration 100 (unit not given), threshold 0.05, below shown as 0
[9] = HEK293, read-out: OR10a response (VUAA1-normalized response), VOC concentration 1 μM
[10] = HEK293, read-out: OR10a response (VUAA1-normalized response), VOC concentration 10 μM
[11] = HEK293, read-out: OR10a response (VUAA1-normalized response), VOC concentration 100 μM
[12] = HEK293, read-out: OR85b response (VUAA1-normalized response)
[13] = concentration 1, normalized fluorescence change, values below 0.05 threshold given as 0
[14] = concentration 10, normalized fluorescence change, values below 0.05 threshold given as 0
[15] = concentration 100, normalized fluorescence change, values below 0.05 threshold given as 0
[16] = HEK293, read-out: OR85b Average response (VUAA1-normalized)

SMILES | activation at 1 µM [1, 3] | activation at 10 µM [1, 4] | activation at 100 µM [1, 5] | Average response ([2]; OR85b cell line, cc. 1 µM) | Average response ([2]; OR85b cell line, cc. 10 µM) | Average response ([2]; OR85b cell line, cc. 100 µM) | activation at 1 µM [1, 9] | activation at 10 µM [1, 10] | activation at 100 µM [1, 11] | activation at 1 µM [2, 12] | activation at 10 µM [2, 12] | activation at 100 µM [2, 12] | DF norm AVERAGE OR85b [2, 13] | DF norm AVERAGE OR85b [2, 14] | DF norm AVERAGE OR85b [2, 15] | further results
CCCCCCCCC=O [nonanal] | 0% | 3% | 0% | 0.00 | 0.00 | 0.00 | – | – | – | – | – | – | – | – | – | OR10a response (VUAA1-normalized) at 1 μM ([1]; OR10a cell line, VOC concentration 1 μM): 0.00; OR10a response (VUAA1-normalized) at 10 μM ([1]; OR10a cell line, VOC concentration 10 μM): 0.00; OR10a response (VUAA1-normalized) at 100 μM ([1]; OR10a cell line, VOC concentration 100 μM): 0.00; DF norm AVERAGE OR10a [1, 6]: 0; DF norm AVERAGE OR10a [1, 7]: 0; DF norm AVERAGE OR10a [1, 8]: 0; OR85b response (VUAA1-normalized) at 1 μM ([2]; OR85b cell line, VOC concentration 1 μM): 0.00; OR85b response (VUAA1-normalized) at 10 μM ([2]; OR85b cell line, VOC concentration 10 μM): 0.00; OR85b response (VUAA1-normalized) at 100 μM ([2]; OR85b cell line, VOC concentration 100 μM): 0.00; DF norm AVERAGE OR85b [2, 6]: 0; DF norm AVERAGE OR85b [2, 7]: 0; DF norm AVERAGE OR85b [2, 8]: 0
C=CC(O)C/C=C\CC (stereo not shown) [(5Z)-octa-1,5-dien-3-ol] | 0% | 2.25% | 0% | 0.07 | 0.09 | 0.00 | 0% | 0% | 0% | 7% | 9% | 0% | 0.07163 | 0.08739 | 0 | DF norm AVERAGE OR10a [1]: 0
Cc1ccc(C)c(C)c1 [1,2,4-trimethylbenzene] | 7% | 0% | 2.53% | 0.0436 | 0.0741 | 0.12 | 7% | 0% | 0% | 0% | 7.41% | 12% | 0 | 0.0741 | 0.1212 | activation at 1 µM [2, 16]: 4%; activation at 10 µM [2, 16]: 7%; activation at 100 µM [2, 16]: 12%
